Results on one compound are retold here after US9790188B2, “Benzimidazole derivatives and uses thereof” (Whitehead Institute for Biomedical Research, priority 2013, dated 2017).

For assay [1], the system named is α-syn. Put plainly: Yeast growth rescue from α-syn toxicity (dose-response). It counts as cell-based. To be noted: relative to parent ABI1. As to the method:
For galactose-induction experiments, overnight cultures were grown in CSM/2% glucose to saturation and diluted 1:20 into CSM/2% raffinose for ˜2 generations. Cultures were then diluted into CSM/2% galactose at an optimum OD600 for the experiment (see ‘Growth assays’).
(§1) Source plates were assembled in 96 well plates using multichannel pipettes to dilute rows in 1.6-fold serial dilutions of CSMGal. […] For α-syn, the final starting OD600 was 0.02. Drug concentration ranges varied depending on efficacy, growth inhibition, and solubility in media. A Tecan EvoFreedom liquid handling robot was then used to transfer culture from 96 to 384 well format with each well being represented four times. Final well volume was 35 μL. Plates were then incubated in humidified containers at 30° C. for either 24 or 40 hours. Plates were then read with a Tecan Saphire plate reader at OD600.
(§2) Raw OD600 values were transformed to “Relative Growth” in WT cells or “% Maximum Rescue” in α-syn experiments. In WT cells, the well background was subtracted and all values were then normalized to 100% for the untreated condition. In α-syn rescue experiments, the well background was subtracted and the maximum rescue in the particular experiment was normalized to 100%.

Assay [2] deals with WT yeast. Kind of assay: Growth inhibition of wild-type yeast (dose-response). To be noted: relative to parent ABI1. It counts as cell-based. As for the experimental part: as §1, §2

As for `Cc1cc(C)cc(-n2cnc3cc(C(=O)NCc4ccccc4Cl)ccc32)c1` [ABI3, N-(2-chlorobenzyl)-1-(3,5-dimethylphenyl)-1H-benzo[d]imidazole-5-carboxamide], in assay [1], the “shift of concentrations for efficacy against α-syn” value is recorded as “higher”. Moreover, in assay [2], the “shift of concentrations for ability to inhibit growth” value is listed as “higher”.
